For 15 compounds, IC50 results are on record in patent US9663523B2, “BET protein-inhibiting 5-aryltriazoleazepines” (BAYER PHARMA AKTIENGESELLSCHAFT, priority 2012, dated 2017).

For assay [1], the target named is BRD4(1) (amino acids 44-168) (Homo sapiens (Human), UniProt O60885). The experiment in a line: BRD4 binding strength, TR-FRET (HTRF) assay of BRD4(1) / acetylated histone H4 peptide interaction. Particulars: inhibition of BRD4(1)/Ac-H4 peptide interaction. An excerpt: To assess the BRD4 binding strength of the compounds according to the invention, the ability thereof to inhibit the interaction between BRD4 and acetylated histone H4 in a dose-dependent manner was quantified. For this purpose, a time-resolved fluorescence resonance energy transfer (TR-FRET) assay was used, which measures the binding between N-terminally His6-tagged BRD4(1) (amino acids 44-168) and a synthetic acetylated histone H4 (Ac-H4) peptide with sequence […]-biotin. The recombinant BRD4 protein produced in-house according to Filippakopoulos et al., Cell, 2012, 149:214-231 was expressed in E. coli and purified by means of (Ni-NTA) affinity and (Sephadex G-75) size exclusion chromatography. The Ac-H4 peptide can be purchased, for example, from Biosyntan (Berlin, Germany). […] For this purpose, 100-fold concentrated solutions in DMSO were prepared by serial dilutions (1:3.4) of a 2 mM stock solution into a clear, 384-well microtitre plate (Greiner Bio-One, Frickenhausen, Germany). From this, 50 nl were transferred into a black test plate (Greiner Bio-One, Frickenhausen, Germany). […] This was followed by a 10-minute incubation step at 22° C. for the pre-equilibration of putative complexes between BRD4 and the substances. Subsequently, 3 μl of a solution of 1.67 times the concentration (in assay buffer) consisting of Ac-H4 peptide (83.5 nM) and TR-FRET detection reagents [16.7 nM anti-6His-XL665 and 3.34 nM streptavidin cryptate (both from Cisbio Bioassays, Codolet, France), and 668 mM potassium fluoride (KF)] were added. The mixture was then incubated in the dark at 22° C. for one hour and then at 4° C. overnight. The formation of BRD4/Ac-H4 complexes was determined by the measurement of the resonance energy transfer from the streptavidin-Eu cryptate to the anti-6His-XL665 antibody present in the reaction. […] The ratio of the emissions at 665 nm and at 622 nm was taken as an indicator of the amount of BRD4/Ac-H4 complexes formed.

Assay [2] concerns MOLM-13 cells. The experiment in a line: Cell proliferation (alamarBlue), MOLM-13. The format is cell-based. The note with it: Homo sapiens, acute myeloid leukaemia cell line, 96 hours incubation. As for the experimental part:
(§1) The ability of the compounds according to the invention to inhibit the proliferation of various cell lines was determined.
(§2) Cell viability was determined by means of the alamarBlue® reagent (Invitrogen). The cells were sown at different densities (MOLM-13, LAPC-4, MOLP-8 and MDA-MB-231: 4000 cells/well; B16F10: 400 cells/well) in 100 μl of growth medium on 96-well microtitre plates. After overnight incubation at 37° C., the fluorescence values (CI values) were determined. The plates were then treated with various substance dilutions and incubated at 37° C. for 96 hours (MOLM-13, MDA-MB-231 and B16F10 cells), 120 hours (MOLP-8 cells) or 168 hours (LAPC-4 cells). Subsequently, the fluorescence values were determined (CO values). For the data analysis, the CI values were subtracted from the CO values and the results were compared between cells which had been treated with various dilutions of the substance or only with buffer solution.
(§3) The compounds according to the invention were tested in the cell lines in Table 2, which represent the indications specified by way of example:
(§4) The indications corresponding to the different cell lines can be found in Table 2.
(Alamar Blue is a resazurin reagent that responds to reducing activity.)

Assay [3] concerns LAPC-4 cells. The experiment in a line: Cell proliferation (alamarBlue), LAPC-4. In kind it is cell-based. Particulars: Homo sapiens, LAPC4; prostate carcinoma (androgen receptor-positive) cell line, 168 hours incubation. As for the experimental part: as §1
as §2, with “values).” for “values). For the data analysis, the CI values were subtracted from the CO values and the results were compared between cells which had been treated with various dilutions of the substance or only with buffer solution.”
as §3, §4

Assay [4] has as its system B16F10 cells. Nature of the assay: Cell proliferation (alamarBlue), B16F10. The format is cell-based. Particulars: Mus musculus, B16-F10; melanoma cell line, 96 hours incubation. As for the experimental part: as §1, §2, §3, §4
Assay [5] has as its system MDA-MB-231 cells. Nature of the assay: Cell proliferation (alamarBlue), MDA-MB-231. In kind it is cell-based. Particulars: Homo sapiens, mammary carcinoma cell line, 96 hours incubation. As for the experimental part:
as §1, §2, §3, §4

In assay [6] the test system is MOLP-8 cells. The experiment in a line: Cell proliferation (alamarBlue), MOLP-8. Particulars: Homo sapiens, multiple myeloma cell line, 120 hours incubation. The format is cell-based. As for the experimental part: as §1
as §2, with “values).” for “values). For the data analysis, the CI values were subtracted from the CO values and the results were compared between cells which had been treated with various dilutions of the substance or only with buffer solution.”
as §3, §4

Turning to `Cc1nnc2n1-c1ccccc1C(c1ccc(Cl)cc1)=CC2CC(=O)N1CC(F)C1` (stereo in doubt) [Example 17, (−)-2-[(4R)-6-(4-chlorophenyl)-1-methyl-4H-[1,2,4]triazolo[4,3-a][1]benzazepin-4-yl]-1-(3-fluoroazetidin-1-yl)ethanone], the IC50 in assay [1] amounted to 0.09 µM; in assay [2] it was 0.34 µM; in assay [3], 0.14 µM; in assay [4], 0.28 µM; in assay [5], 0.57 µM.
For `Cc1nnc2n1-c1ccccc1C(c1ccc(Cl)cc1)=CC2CC(=O)Nc1ccc2c(c1)CC(=O)N2` (stereo in doubt) [Example 21, (−)-2-[(4R)-6-(4-chlorophenyl)-1-methyl-4H-[1,2,4]triazolo[4,3-a][1]benzazepin-4-yl]-N-(2-oxo-2,3-dihydro-1H-indol-5-yl)acetamide], the IC50 in assay [1] stood at 0.08 µM; in assay [2], 0.17 µM; in assay [3], 0.08 µM; in assay [4], 0.19 µM; in assay [5], 0.48 µM.
On to `Cc1nnc2n1-c1ccccc1C(c1ccc(Cl)cc1)=CC2Cc1nc(C(C)C)no1` (stereo in doubt) [Example 36, (−)-(4R)-6-(4-chlorophenyl)-1-methyl-4-{[3-(propan-2-yl)-1,2,4-oxadiazol-5-yl]methyl}-4H-[1,2,4]triazolo[4,3-a][1]benzazepine], for which the IC50 in assay [1] came to 0.09 µM; in assay [2], 0.4 µM; in assay [3], 0.16 µM; in assay [4] it was 0.24 µM; in assay [5] it was 0.41 µM.
Consider `Cc1nnc2n1-c1ccccc1C(c1ccc(Cl)cc1)=CC2Cc1nc(C2CC2)no1` (stereo in doubt) [Example 37, (−)-(4R)-6-(4-Chlorophenyl)-4-[(3-cyclopropyl-1,2,4-oxadiazol-5-yl)methyl]-1-methyl-4H-[1,2,4]triazolo[4,3-a][1]benzazepine], for which the IC50 in assay [1] is 0.05 µM; in assay [2], 0.33 µM; in assay [3], 0.31 µM; in assay [4], 0.22 µM; in assay [5], 0.38 µM.
As for `CCNC(=O)CC1C=C(c2ccc(Cl)cc2)c2ccccc2-n2c(C)nnc21` (stereo not drawn) [Example 12, 2-[6-(4-chlorophenyl)-1-methyl-4H-[1,2,4]triazolo[4,3-a][1]benzazepin-4-yl]-N-ethylacetamide], the IC50 amounted to 0.13 µM in assay [1]; 0.27 µM in assay [2]; 0.08 µM in assay [3]; 0.23 µM in assay [4]; 0.48 µM in assay [5].
The like results for `Cc1nnc2n1-c1ccccc1C(c1ccc(Cl)cc1)=CC2CC(=O)N1CCOCC1` (stereo not drawn) [Example 14, 2-[6-(4-chlorophenyl)-1-methyl-4H-[1,2,4]triazolo[4,3-a][1]-benzazepin-4-yl]-1-(morpholin-4-yl)ethanone] were, in that order, 0.31 µM, 0.46 µM, 0.21 µM, 0.41 µM and 1.01 µM.
On to `Cc1nnc2n1-c1ccccc1C(c1ccc(Cl)cc1)=CC2CC(=O)N1CC(F)C1` (stereo not drawn) [Example 16, 2-[6-(4-chlorophenyl)-1-methyl-4H-[1,2,4]triazolo[4,3-a][1]benzazepin-4-yl]-1-(3-fluoroazetidin-1-yl)ethanone], for which the IC50 in assay [1] amounted to 0.22 µM; in assay [2], 0.53 µM; in assay [3] it was 0.26 µM; in assay [4], 0.46 µM; in assay [5], 1.04 µM.
`Cc1nnc2n1-c1ccccc1C(c1ccc(Cl)cc1)=C[C@H]2CC(=O)N1CC2(CCS2(=O)=O)C1` [Example 19, (−)-2-[(4R)-6-(4-chlorophenyl)-1-methyl-4H-[1,2,4]triazolo[4,3-a][1]benzazepin-4-yl]-1-(1,1-dioxido-1-thia-6-azaspiro[3.3]hept-6-yl)ethanone]: the IC50 in assay [2] worked out at 0.15 µM; in assay [3], 0.17 µM; in assay [4] it was 0.16 µM; in assay [6], 0.19 µM; in assay [5], 0.38 µM.
Turning to `Cc1nnc2n1-c1ccccc1C(c1ccc(Cl)cc1)=CC2CC(=O)Nc1ccc2c(c1)CC(=O)N2` (stereo not drawn) [Example 20, 2-[6-(4-chlorophenyl)-1-methyl-4H-[1,2,4]triazolo[4,3-a][1]benzazepin-4-yl]-N-(2-oxo-2,3-dihydro-1H-indol-5-yl)acetamide], the IC50 in assay [1] stood at 0.24 µM; in assay [2], 0.54 µM; in assay [3], 0.14 µM; in assay [4] it was 0.35 µM; in assay [5], 0.98 µM.
With `Cc1nnc2n1-c1ccccc1C(c1ccc(Cl)cc1)=CC2CC(=O)N1C2CCC1CC(=O)C2` (stereo not drawn) [Example 22], the IC50 came out at 0.34 µM in assay [1]; 1.73 µM in assay [2]; 0.21 µM in assay [3]; 0.84 µM in assay [4]; 2.9 µM in assay [5].
Take `Cc1nnc2n1-c1ccccc1C(c1ccc(Cl)cc1)=CC2CC(=O)N1CC(Oc2ccccc2)C1` (stereo not drawn) [Example 24, 2-[6-(4-chlorophenyl)-1-methyl-4H-[1,2,4]triazolo[4,3-a][1]benzazepin-4-yl]-1-(3-phenoxyazetidin-1-yl)ethanone]: the IC50 in assay [1] worked out at 0.22 µM; in assay [2], 2.94 µM; in assay [3], 0.55 µM; in assay [4], 1.05 µM; in assay [5], 2.53 µM.
With `Cc1nnc2n1-c1ccccc1C(c1ccc(Cl)cc1)=C[C@H]2CC(=O)N1CCC(=O)C1` [Example 27, (−)-1-{[(4R)-6-(4-chlorophenyl)-1-methyl-4H-[1,2,4]triazolo[4,3-a][1]benzazepin-4-yl]acetyl}pyrrolidin-3-one], the IC50 came out at 0.11 µM in assay [1]; 0.25 µM in assay [2]; 0.18 µM in assay [3]; 0.34 µM in assay [4]; 0.71 µM in assay [5].
Regarding `Cc1nnc2n1-c1ccccc1C(c1ccc(Cl)cc1)=CC2CC(=O)N1CCS(=O)(=O)C1` (stereo not drawn) [Example 30, 2-[6-(4-chlorophenyl)-1-methyl-4H-[1,2,4]triazolo[4,3-a][1]benzazepin-4-yl]-1-(1,1-dioxido-1,3-thiazolidin-3-yl)ethanone], the IC50 in assay [1] turned out to be 0.08 µM; in assay [2], 0.85 µM; in assay [3], 0.19 µM; in assay [4], 0.49 µM; in assay [5], 1.13 µM.
As for `Cc1nnc2n1-c1ccccc1C(c1ccc(Cl)cc1)=C[C@H]2CC(=O)N1CCS(=O)(=O)C1` [Example 31, (−)-2-[(4R)-6-(4-chlorophenyl)-1-methyl-4H-[1,2,4]triazolo[4,3-a][1]benzazepin-4-yl]-1-(1,1-dioxido-1,3-thiazolidin-3-yl)ethanone], the IC50 was found to be 0.18 µM in assay [1]; 0.19 µM in assay [2]; 0.08 µM in assay [3]; 0.22 µM in assay [4]; 0.56 µM in assay [5].
The corresponding values for `Cc1nnc2n1-c1ccccc1C(c1ccc(Cl)cc1)=CC2CC(=O)N1CC2CCC(C1)O2` (stereo not drawn) [Example 32, 2-[6-(4-chlorophenyl)-1-methyl-4H-[1,2,4]triazolo[4,3-a][1]benzazepin-4-yl]-1-(8-oxa-3-azabicyclo[3.2.1]oct-3-yl)ethanone] are 0.39 µM, 1.81 µM, 0.25 µM, 0.8 µM and 2.04 µM.

Broadly, the IC50 is the point on the concentration scale where inhibition reaches its midpoint. Lower therefore signals higher potency.
